The text below walks through data of patent publication US20120190659A1, “ANGIOGENESIS INHIBITORS” (Children's Medical Center Corporation, priority 2009, published 2012).

For series [1], the system named is human umbilical vascular endothelial (HUVE) cells. The series can be described thus: Compound toxicity in HUVE cells (morphology after 24 h culture). Format: cell-based. Particulars: 50-2000 nM, 5% FBS/EGM2 media. How it is done: HUVE cells were cultured for 24 hours on standard tissue culture dishes in the presence of EJC 1-6 over a range of concentration (50-2000 nM). […] (FIGS. 1 and 2).

For series [2], the system named is developing vasculature of the newborn mouse retina. As to the kind of experiment: In vivo screening assay for inhibitors of retinal angiogenesis (intravitreous injection, newborn mice). Conditions: 5-10 nmol in a single injection. An excerpt:
Blood vessel formation is critical for organ formation in the body. Compounds that inhibit angiogenesis within specific tissue types have therapeutic potential. For example, compounds that are effective in the retina may be used for the treatment of many types of blindness and other opthalmological diseases. Therefore, an in vivo method to screen for compounds that inhibit the growing vascular networks within the developing whole retina in eyes of living newborn mice was developed.
To screen in vivo in the eye for inhibitors of retinal angiogenesis, we adapted and modified the system described in Mammoto, A., Connor, K. M., Mammoto, T., Yung, C. W., Huh, D., Aderman, C. M., Mostoslaysky, G., Smith, L. E. H., & Ingber, D. E. A mechanosensitive transcriptional mechanism that controls angiogenesis. Nature 457, 1103-1108 (2009); and Shih, S. C., Ju, M., Liu, N. & Smith, L. E. Selective stimulation of VEGFR-1 prevents oxygen-induced retinal vascular degeneration in retinopathy of prematurity. J. Clin. Invest. 112, 50-7 (2003), the teachings of both are incorporated herein by reference. This assay was performed by a procedure described in Chen J, Connor K M, Aderman C M, Smith L E. “Erythropoietin deficiency decreases vascular stability in mice.” J. Clin. Invest. 2008, 118:526-33, the teachings of which are incorporated herein by reference.
After intraperitoneal injection of Avertin (125-240 mg/kg), the eyelid of mice was opened in a gentle manner by using tiny sterile blunt forceps. Test compound was injected into the vitreous of one eye of the mouse and a vehicle was injected into the other eye of the same mouse at either P6 or P14. Injections were performed by inserting an Exmire microsyringe (MS-NE05, ITO Corp. Fuji, Japan) into the vitreous 1 mm posterior to the corneal limbus. Pupils were dilated with 1% tropicamide. Insertion and the injection (0.3-0.5 μL solution) were directly viewed through an operating microscope, taking care not to injure the lens or the retina. The time points for intravitreous injection were set at P6 and P14 because these stages represent distinct developmental stages during vascular network formation. Blood vessels start spreading over the surface of retinal tissue at early times (P4-P6), then these distributed blood vessels start migrating into the deeper layer of the retina to make a three-dimensional vascular network at later times (P6-P14). Thus, using this approach, screening for inhibitors of initiation of angiogenesis at early times, and agents that induce regression of preexisting capillary vessels at the later time point can be identified.
After injection, the eyelid was treated with bacitracin eye antibiotic ointment, and eyelids naturally reformed after the procedure. Vascular network formation in the retina was assessed two days after injection using flat-mounted, fluorescein-conjugated isolectin-staining and immunohistochemical analysis. Quantification of vessel density was performed with Adobe photoshop.

Series [3] relates to human umbilical vascular endothelial (HUVE) cells. The series can be described thus: HUVE cell migration, transwell migration assay stimulated by VEGF. The series is classed as cell-based. Particulars: 20 ng/ml VEGF. How it is done:
Cell migration is an important aspect of angiogenesis. The effect of the test compounds on HUVE cell motility as stimulated by VEGF was examined using a transwell migration assay. This assay was performed by a similar procedure described in Shimizu A, Mammoto A, Italiano J E Jr, Pravda E, Dudley A C, Ingber D E, Klagsbrun M. “ABL2/ARG tyrosine kinase mediates SEMA3F-induced RhoA inactivation and cytoskeleton collapse in human glioma cells.” J. Biol. Chem. 2008, 283:27230-8, the teaching of which are incorporated by reference.
Briefly, transwell membranes (Coster, N.Y.) were coated with 0.5% gelatin, and cells were seeded (10^5 cells/100 μl) with 0.3% FBS/EBM2. The test compound was added to the both sides of the chamber. Cells were stained with Giemsa solution 16 hours later, and counted in 10 random fields (×400).

Series [4] has the same test system. The series can be described thus: HUVE cell growth (BrdU incorporation). Format: cell-based. How it is done:
Incorporation of 5-bromo-2′-deoxyuridibe (BrdU) is a common method used to detect the DNA replication in actively proliferating cells. Inhibition of cell growth is inferred by the decrease of BrdU incorporation into the cells. […] The assay can be preformed in the presence or absence of growth factors such as VEGF, bFGF and PDGF. This assay was performed by a procedure described in Huang S, Chen C S, Ingber D E. “Control of cyclin D1, p 27(Kip1), and cell cycle progression in human capillary endothelial cells by cell shape and cytoskeletal tension.” Mol Biol Cell. 1998, 9:3179-93, the teachings of which are incorporated herein by reference.
A general note: Dividing cells build labelled thymidine or BrdU into new DNA.

Series [5] shares this test system. As to the kind of experiment: Tube formation of HUVE cells on Matrigel. Format: cell-based. How it is done:
The effect of an agent on tube formation of HUVE cells was determined by a procedure described in Grant D S, Kinsella J L, Kibbey M C, LaFlamme S, Burbelo P D, Goldstein A L, Kleinman H K “Matrigel induces thymosin beta 4 gene in differentiating endothelial cells.” J Cell Sci. 1995, 108:3685-94, the teachings of which are incorporated by reference.
Briefly, HUVE cells (10^4 cells/150 μl of EBM-2) were plated on Matrigel™ (BD biosciences) and incubated for 12-16 hrs in the presence of VEGF (20 ng/ml) and the test compound. Tube formation was assessed in 10 random fields (4×).

Structures are written as SMILES. A value given as a limit tells only on which side of the number the result lay.

As for `CN(C)[C@H]1CC[C@H]2[C@@H](CC[C@@H]3[C@@H]2CC[C@]2(C)C(c4ccc5ccncc5c4)=CC[C@@H]32)C1` [EJC-2], in series [1], the “morphological change of HUVE cells” value is recorded as “No morphological change”. In addition, the “retinal angiogenesis, morphological analysis” value in series [2] is “appeared to inhibit retinal angiogenesis based on morphological analysis, but the sampling numbers were low and significant effects were not observed”. In addition, the HUVE cell migration entry in series [3] (200 nM test compound) was “exhibited inhibitory activity”; in series [3] (1 μM (1000 nM) test compound) it was “inhibit”. In series [4] (0, 200, 1000 and 2000 nM (FIG. 3B)), the “growth of HUVE cells (BrdU incorporation)” value is “inhibit the growth”. Further, in series [4] (1 μM (FIG. 3A)), the BrdU incorporation entry is on record as “inhibit”. The “doses that inhibited BrdU incorporation” value in series [4] (FIGS. 3A & 3B) was greater than 200 nM. The tube formation result in series [5] (200 nM, cultured with VEGF in the basal EBM2 medium) is “inhibited”; in series [5] (2 μM), “inhibited”.
